The assay has as its system SARS-CoV-2. The assay can be described thus: microbe, parasite or virus in culture. As to conditions: Severe acute respiratory syndrome coronavirus 2, Vero C1008, 48 h.

Take `CCC(C)(C)c1ccc(CC(C)CN2C[C@@H](C)O[C@@H](C)C2)cc1` (some centres not stated) [AMOROLFINE]: the IC50 was > 20 µM. The IC50 (read-out: pIC50 (converted)) was > 20 µM.

For `CC(=O)OC1CCC2(C)C(=CCC3C2CCC2(C)C(OC(=O)c4ccccc4)CCC32)C1` (configuration not stated), the IC50 was > 20 µM. Also, for the setting “read-out: pIC50 (converted)”, the IC50 was > 20 µM.

For `CC[N+](C)(C)c1cccc(O)c1` [EDROPHONIUM], the IC50 was > 20 µM. Moreover, the IC50 (read-out: pIC50 (converted)) was > 20 µM.

`CC1(O)CCOC(=O)C1` (configuration not stated): the IC50 is > 20 µM. Also, the IC50 (read-out: pIC50 (converted)) was > 20 µM.

As for `C[C@H](N)[C@H](O)c1ccc(O)c(O)c1` [LEVONORDEFRIN], the IC50 is > 20 µM. Further, under “read-out: pIC50 (converted)”, the IC50 is > 20 µM.

With `CC(C)C[C@H](NC(=O)[C@H](CCc1ccccc1)NC(=O)CN1CCOCC1)C(=O)N[C@@H](Cc1ccccc1)C(=O)N[C@@H](CC(C)C)C(=O)[C@@]1(C)CO1` [CARFILZOMIB], the IC50 was > 20 µM. Moreover, the IC50 (read-out: pIC50 (converted)) is > 20 µM.

As for `O=C(O)CCCCC1CCSS1` (stereo not drawn) [LIPOIC ACID, ALPHA], the IC50 was > 20 µM. Besides, for the setting “read-out: pIC50 (converted)”, the IC50 is > 20 µM.

With `CC12CCC(=O)C=C1CCC1C3CCC(O)(C(=O)CO)C3(C)CC(O)C12F` (configuration not stated), the IC50 was > 20 µM. In addition, the IC50 (read-out: pIC50 (converted)) is > 20 µM.

`CN1C(C(=O)Nc2ccccn2)=C(O)c2sccc2S1(=O)=O` [TENOXICAM]: the IC50 is > 20 µM. Moreover, where the note is “read-out: pIC50 (converted)”, the IC50 is > 20 µM.

Turning to `CCC1(C)CC(=O)NC(=O)C1` [BEMEGRIDE], the IC50 was > 20 µM. Besides, the IC50 (read-out: pIC50 (converted)) was > 20 µM.

Consider `Cc1c(Cn2ccnc2)c2ccccc2n1CCC(=O)O` [DAZMEGREL], for which the IC50 is > 20 µM. Besides, the IC50 (read-out: pIC50 (converted)) was > 20 µM.

Regarding `CN1CCC/C1=N\C(=N\c1ccccc1)N1CCCC1` [PIROGLIRIDE], the IC50 is > 20 µM. Besides, the IC50 (read-out: pIC50 (converted)) was > 20 µM.

In the case of `NS(=O)(=O)NC[C@H]1COc2cc(Cl)ccc2O1` [JNJ-26489112], the IC50 was > 20 µM. Besides, the IC50 (read-out: pIC50 (converted)) is > 20 µM.

`CC(Cc1ccccc1)NN` (configuration not stated) [PHENIPRAZINE]: the IC50 was > 20 µM. Under “read-out: pIC50 (converted)”, the IC50 was > 20 µM.

As for `C=CC(=O)Nc1cccc(Nc2nc(Nc3ccc(OCCOC)cc3)ncc2F)c1` [SPEBRUTINIB], the IC50 is > 20 µM. Also, the IC50 (read-out: pIC50 (converted)) is > 20 µM.

For `N#Cc1cc(CN2CCC(Nc3ncnc4sc(Cl)cc34)CC2)ccc1F` [PRX-08066 FREE BASE], the IC50 was > 20 µM. Besides, for the setting “read-out: pIC50 (converted)”, the IC50 is > 20 µM.

As for `CCN[C@H]1CN(CCCOC)S(=O)(=O)c2sc(S(N)(=O)=O)cc21` [BRINZOLAMIDE], the IC50 is > 20 µM. Further, the IC50 (read-out: pIC50 (converted)) is > 20 µM.

With `Cc1c(C)c2c(c(C)c1O)CCC(C)(C(=O)O)O2` (configuration not stated) [TROLOX], the IC50 is > 20 µM. In addition, the IC50 (read-out: pIC50 (converted)) was > 20 µM.

Regarding `C=CCC(N)Cc1ccccc1` (configuration not stated) [ALETAMINE], the IC50 was > 20 µM. Under “read-out: pIC50 (converted)”, the IC50 was > 20 µM.

In the case of `CCCCCCCOC(=O)NC1=NC(=O)N([C@H]2C[C@H](O)[C@@H](CO)O2)CN1` [KP-1461], the IC50 is > 20 µM. For the setting “read-out: pIC50 (converted)”, the IC50 was > 20 µM.

With `Cc1cn(C2CC(N=[N+]=[N-])C(CO)O2)c(=O)nc1N` (configuration not stated), the IC50 was > 20 µM. For the same compound, the IC50 (read-out: pIC50 (converted)) is > 20 µM.

For the compound `O[C@@H](CNC[C@H](O)[C@H]1CCc2cc(F)ccc2O1)[C@@H]1CCc2cc(F)ccc2O1`, the IC50 is > 20 µM. Also, for the setting “read-out: pIC50 (converted)”, the IC50 is > 20 µM.

On to `CCC(C)C(NC(=O)C(CCC(N)=O)NC(=O)C1CCCN1C(=O)C(CCCNC(=N)N)NC(=O)C1CCCN1C(=O)C(Cc1c[nH]c2ccccc12)NC(=O)C1CCC(=O)N1)C(=O)N1CCCC1C(=O)N1CCCC1C(=O)O` (configuration not stated), for which the IC50 is > 20 µM. In addition, the IC50 (read-out: pIC50 (converted)) is > 20 µM.

For `Cc1nc2c(C)cccn2c(=O)c1CCN1CCC(c2noc3cc(F)ccc23)CC1` [OCAPERIDONE], the IC50 is > 20 µM. Further, the IC50 (read-out: pIC50 (converted)) is > 20 µM.

As to `[O-][n+]1cccc(C(Cl)=NOC[C@H](O)CN2CCCCC2)c1`, the IC50 is > 20 µM. Moreover, the IC50 (read-out: pIC50 (converted)) is > 20 µM.

Regarding `CNCCC(Oc1ccccc1OC)c1ccccc1` (configuration not stated) [NISOXETINE], the IC50 is > 20 µM. Also, the IC50 (read-out: pIC50 (converted)) was > 20 µM.

With `COc1c(O)cc2c(c1O)C1OC(CO)C(O)C(O)C1OC2=O` (configuration not stated), the IC50 was > 20 µM. Besides, the IC50 (read-out: pIC50 (converted)) is > 20 µM.

Consider `CN[C@@H]1[C@H](O[C@H]2[C@H](O[C@@H]3[C@@H](O)[C@H](O)[C@@H](NC(=N)N)[C@H](O)[C@H]3NC(=N)N)O[C@@H](C)[C@]2(O)CO)O[C@@H](CO)[C@H](O)[C@H]1O`, for which the IC50 was > 20 µM. Besides, the IC50 (read-out: pIC50 (converted)) was > 20 µM.

For `CCn1c(=O)c2ccccc2n(-c2cccc([N+](=O)[O-])c2)c1=O` [NITRAQUAZONE], the IC50 was > 20 µM. The IC50 (read-out: pIC50 (converted)) was > 20 µM.

For the compound `CC(=O)OC1C[C@@]2(C)[C@@H](C[C@@H](O)C3[C@]2(C)CC[C@H]2[C@H](C)[C@H](O)CC[C@]32C)/C1=C(\CCC=C(C)C)C(=O)O` (some centres not stated), the IC50 is > 20 µM. Also, where the note is “read-out: pIC50 (converted)”, the IC50 was > 20 µM.

Turning to `c1ccc2c(c1)[nH]c1cnccc12` [NORHARMANE], the IC50 was > 20 µM. Besides, the IC50 (read-out: pIC50 (converted)) is > 20 µM.

For `CC1CC2C3CC(F)C4=CC(=O)C=CC4(C)C3C(O)CC2(C)C1C(=O)CO` (configuration not stated), the IC50 was > 20 µM. The IC50 (read-out: pIC50 (converted)) is > 20 µM.

Turning to `NNCCc1ccccc1` [PHENELZINE], the IC50 was > 20 µM. The IC50 (read-out: pIC50 (converted)) is > 20 µM.

Take `C=C[C@]1(C)C[C@@H](OC(=O)CSCCN(CC)CC)[C@]2(C)C(C)CC[C@]3(CCC(=O)[C@@H]32)[C@@H](C)[C@@H]1O` (some centres not stated): the IC50 is > 20 µM. For the same compound, the IC50 (read-out: pIC50 (converted)) was > 20 µM.

Consider `O=C(O)COCCN1CCN(C(c2ccccc2)c2ccc(Cl)cc2)CC1` (configuration not stated) [CETIRIZINE], for which the IC50 is > 20 µM. The IC50 (read-out: pIC50 (converted)) is > 20 µM.

Turning to `CN1C(=O)CC(=O)N(c2ccccc2)c2cc(Cl)ccc21` [CLOBAZAM], the IC50 is > 20 µM. Further, the IC50 (read-out: pIC50 (converted)) was > 20 µM.

For the compound `Cc1cc2c(C(C)C)c(O)c(O)c(C=O)c2c(O)c1-c1c(C)cc2c(C(C)C)c(O)c(O)c(C=O)c2c1O` [GOSSYPOL], the IC50 is > 20 µM. The IC50 (read-out: pIC50 (converted)) is > 20 µM.

With `CCCC1(c2cccc(O)c2)CCN(C)C1` (configuration not stated) [PROFADOL], the IC50 is > 20 µM. Moreover, the IC50 (read-out: pIC50 (converted)) is > 20 µM.

For `COc1ccc2[nH]c3c(c2c1)CCN=C3C`, the IC50 was > 20 µM. The IC50 (read-out: pIC50 (converted)) is > 20 µM.

Take `O=C(CCCN1CCC(O)(c2cccc(C(F)(F)F)c2)CC1)c1ccc(F)cc1` [TRIFLUPERIDOL]: the IC50 is > 20 µM. In addition, the IC50 (read-out: pIC50 (converted)) was > 20 µM.

With `O=C(O)CC(S)C(=O)O` (configuration not stated), the IC50 is > 20 µM. The IC50 (read-out: pIC50 (converted)) is > 20 µM.

On to `CCCS(=O)(=O)Nc1ccc(F)c(C(=O)c2c[nH]c3ncc(-c4ccc(Cl)cc4)cc23)c1F` [VEMURAFENIB], for which the IC50 is > 20 µM. Besides, the IC50 (read-out: pIC50 (converted)) was > 20 µM.

Regarding `O=C(O)c1cccc2c1Nc1cc(C(F)(F)F)ccc1S2` [FLUTIAZIN], the IC50 was > 20 µM. For the same compound, the IC50 (read-out: pIC50 (converted)) is > 20 µM.

Turning to `CN(C)C(=N)NC(=N)N` [METFORMIN], the IC50 was > 20 µM. For the setting “read-out: pIC50 (converted)”, the IC50 is > 20 µM.

For `CN1CCC(=C2c3ccccc3C=Cc3ccccc32)CC1` [CYPROHEPTADINE], the IC50 is > 20 µM. In addition, under “read-out: pIC50 (converted)”, the IC50 was > 20 µM.

For `NC1=NCC(CN2CCN(c3ccccc3)CC2)O1` (configuration not stated), the IC50 is > 20 µM. For the same compound, the IC50 (read-out: pIC50 (converted)) is > 20 µM.

The record behind these values is ChEMBL document CHEMBL4651402, “Screening of ~5500 FDA-approved drugs and clinical candidates for anti-SARS-CoV-2 activity” (2021).
